Test results reported in patent US6348311B1, “ATM kinase modulation for screening and therapies” (St. Jude Childre's Research Hospital, priority 1999, dated 2002).
Blank lines part the entries; values can stand above or below the molecule they belong to. Where a SMILES comes first, the peptide text is derived from it. Where no end group is shown, it is not given here. [ ]: non-standard residue; d: D form. Nle = CCCC[C@H](N)C(=O)O

Tests used:
p53 phosphoserine 15 = test: p53 Ser15 phosphorylation in lymphoblasts (immunoprecipitation and immunoblot); type: cell-based, human; conditions: ALLN 90 min
Protocol: Posttranslational modification of p53 on Ser^15 in response to ionizing radiation. Monoclonal antibodies against a chemically synthesized p53 phosphoserine-15 peptide (amino acids 9-22) were used to immunoblot synthetic peptides (1×, 50 μg) consisting of the first 24 amino acids of p53 with (1-24^S15-P) or without (1-24) phosphoserine 15. Normal WT (2184) or AT (1526) lymphoblasts were untreated or treated with 5 Gy IR (IR) or 20 mM ALLN for 90 min. p53 was immunoprecipitated, subjected to SDS-PAGE (7.5% gel), transferred to nitrocellulose, and immunoblotted with the monoclonal antibody to phosphoserine 15 p53 (upper panel). Blots were then stripped and immunoblotted with antibodies to p53 (lower panel).
Normal (2184) and AT (1526) EBV immortalized human lymphoblasts were irradiated with a ^137Cs source or treated with 20 mm ALLN (Sigma) for 90 min. Cells were then harvested, lysed, and p53 was immunoprecipitated as described (Siliciano et al., Genes Dev., 11:3471, 1997). Immunoprecipitates were resolved by non-reducing SDS-PAGE, transferred to nitrocellulose and immunoblotted with monoclonal antibody to phosphoserine 15. Blots were stripped and reprobed with p53-specific monoclonal antibodies (Ab-2 and Ab-6).

ATM kinase [1] = test: ATM immunoprecipitated from SY5Y neuroblastoma cells after IGF-I, in vitro kinase assay with GST-p53; type: cell-based; conditions: differentiated SY5Y cells, 10nM IGF-I
Protocol: Since the growth factor and survival factor insulin-like growth factor (IGF)-I activates cellular signaling in a manner similar to insulin, the insulin observations above led us to also investigate whether IGF-I might activate ATM kinase. […] Undifferentiated and differentiated SY5Y cells were treated with IGF-I and ATM activation was assessed.
ATM was immunoprecipitated from either undifferentiated or differentiated SY5Y neuroblastoma cells after treatment with 10nM IGF-I (control cells were untreated). The immunoprecipitated ATM was then used in an in vitro kinase assay with the GST-p53 protein as the substrate. Equivalent amounts of ATM and GST-p53 were used.

ATM kinase [2] = test: ATM immunoprecipitated from differentiated 3T3-L1 cells with or without insulin, in vitro kinase assay with GST-4E-BP1; type: cell-based; conditions: GST-4E-BP1 substrate
From the text: ATM was immunoprecipitated from 3T3-L1 after differentiation and without (−) or with (+) exposure to insulin. The immunoprecipitated ATM was then used in an in vitro kinase assay with GST-4E-BP1 protein as the substrate. Equivalent amounts of ATM and GST-4E-BP1 were used.

4E-BP1 bound to eIF-4E = test: Insulin induced release of 4E-BP1 from eIF-4E in fibroblasts (Western blot); type: cell-based, mice
Protocol: Fibroblasts from normal or AT mice were treated with (+) or without (−) insulin and total cellular and complexed eIF-4E and 4E-BP1 were examined by Western blot. Total cellular eIF-4E and 4E-BP1 were unchanged by insulin treatment. The amount of 4E-BP1 bound to eIF-4E was examined by immunoprecipitating eIF-4E with a methyl-G column and then blotting for both proteins.

[3] = tested on: p95 Ser343 phosphorylation; test: IR-induced phosphorylation of Myc-p95 on Ser343 in co-transfected 293T cells; type: cell-based; conditions: co-transfected with p95 into 293T cells, 5 Gy IR
From the text: FIGS. 4A and 4B. In vivo phosphorylation of p95 on ser343 by ATM upon ionizing irradiation. (A) Phosphorylation of p95 on Ser343 by IR in an ATM-dependent manner in vivo. […] The expression of Flag-ATM in each cell lysates was detected with anti-Flag antibody (top panel). Immunoprecipitated Myc-p95 was blotted with anti-a-p95-phosphoserine 343 antibody (middle panel) or anti-Myc antibody (lower panel). (B) Phosphorylation of endogenous p95 on Ser343 in normal cells, but not AT cells, after IR. Normal (WT, GM0536) or AT (GM1526) lymphoblasts were treated with either 0 (−) or 5 (+) Gy IR. Endogenous p95 was immunoprecipitated and blotted with anti-a-p95-phosphoserine 343 antibody (top panel) or anti-p95 antibody (lower panel).
In vivo phosphorylation of p95. Myc-tagged p95 (3 μg) was transiently co-transfected into 293T cells with wtATM, kdATM, or pCDNA3 (7μg) using calcium phosphate. After 2 days, cells were harvested and Myc-p95 was immunoprecipitated, subjected to SDS-PAGE (7.5%), transferred to nitrocelluose, and immunoblotted with α-cMyc antibody or the α-p95-phosphoserine 343 polyclonal mouse antibody. For metabolic labeling, the cells were washed with phosphate free RPMI plus 10% dialyzed fetal bovine serum and incubated for 30 min before irradiation. […] After electrophoresis in 7.5% SDS-PAGE, radiolabeled p95 and ATM were visualized and quantified on a PhosphorImager.

ATR = molecular target: T1, ATR (Homo sapiens, UniProt Q13535); test: In vitro kinase assay, ATR with GST-peptide / GST-fusion substrates; type: biochemical
T1 construct: made in house; host or cells: 293T cells, transient transfection with pBJF-FRPwt, anti-FLAG M2 immunoprecipitate
Protocol: (§1) FIGS. 1A, 1B, and 1C. Phosphorylation of GST-p53 mutant peptides (amino acids 9-21) by ATM, ATR, and DNA-PK in vitro. In vitro kinase assays with immunoprecipitated, transfected flag-tagged ATM (A) or ATR (B) or purified DNA-PK (C) were performed with GST-p53 peptides containing the amino acid substitutions indicated. The amount of 32P-labeled GST-peptides was quantitated with a PhosphorImager and was normalized for each of the kinases to the level of phosphorylation of wild-type GST-p53.
(§2) FIGS. 2A, 2B, and 2C. Phosphorylation of candidate targets of by ATM, ATR and DNA-PK in vitro. GST-peptides containing the putative target sequences were used as substrates for the kinase assay.
Transfection and Kinase Activity Assays. 293T cells were transiently transfected with 10 μg of either pcDNA-FLAG-ATMwt, pcDNA-FLAG-ATMkd, pBJF-FRPwt or pBJF-FRPkd (Cliby et al., EMBO J., 17:159, 1998) using calcium phosphate and harvested two days later. Cells were lysed through sonication in TGN buffer [50 mM Tris (pH 7.5), 50 mM glycerophosphate, 150 mM NaCl, 10% glycerol, 1% Tween 20, 1 mM NaF, 1 mM NaVO4, 1 mM PMSF, […] Pepstatin A, 5 μg/ml leupeptin, 10 μg/ml Aprotinin and 1 mM DTT] as described (Brunn et al., Science, 277:99-101,1997). After centrifugation at 13,000 ×g, 2 mg of extract were incubated with mouse IgG and protein A/G sepharose beads (Calbiochem). FLAG-tagged proteins were then immunoprecipitated with anti-FLAG M2 monoclonal antibody (Eastman Kodak Company) and protein A/G sepharose beads. Immunoprecipitates were washed twice with TGN buffer, once with 100 mM Tris (pH 7.5) plus 0.5 M LiCl, and twice with kinase buffer [10 mM Hepes (pH 7.5), 50 mM glycerophosphate, 50 mM NaCl, 10 mM MgCl2, 10 mM MnCl2, 5 μM ATP, and 1 mM DTT]. Kinase reactions were initiated by resuspending washed beads in 30 μl of kinase buffer containing 10 μCi [γ-^32P]ATP and 1 μg GSTp531-101 and incubated for 30 minutes at 30° C. Proteins were electrophoretically separated by SDS-polyacrylamide gel electrophoresis, transferred to nitrocellulose, and analyzed on a PhosphorImager. FLAG-tagged proteins and GSTp531-101 were subjected to immunoblotting with either anti-FLAG M2 antibody or monoclonal antibodies directed towards the NH2-terminus of p53 (Ab-2 and Ab-6, Calbiochem) as described (Siliciano et al., Genes Dev., 11:3471, 1997).
Phosphorylation of Ser^15 of p53 by ATM and ATR/FRP1 in vitro. […] Proteins from each reaction were separated by SDS polyacrylamide gel electrophoresis (7% gel), transferred to nitrocellulose, and analyzed either on a PhosphorImager or by immunoblotting. Amounts of FLAG-tagged ATM or ATR in each kinase reaction were measured by immunoblotting with anti-FLAG M2 (top panel) and amount of [γ^32P]phosphate incorporated into ATM or ATR during the reaction (lower panel). […] An upper immunoreactive band represents phosphorylated GSTp53 fusion protein. The same exposures were used for ATM, ATR/FRP1 and corresponding substrate proteins.
(§3) Plasmids and GST-fusion protein production. For GST fusion peptide expression vectors, complementary oligonucleotides encoding desired peptides (14 amino acids) were cloned into the BamHI/SmaI site of pGEX-2T (Pharmacia). The constructs were confirmed by restriction enzyme digests and DNA sequencing. To construct the larger GST-p95 (327-391) protein fragment, p95 DNA encoding amino acids 327-391 was amplified by PCR with Pfu polymerase using the following primers: 5′ sense,
In vitro kinase assays and immunoprecipitation. […] Cleared supernatants were immunoprecipitated with anti-Flag M2 antibody and protein A/G agarose, the beads were washed with TGN buffer followed by TGN buffer plus 0.5 M LiCl, and two washes with kinase buffer [20 mM HEPES (pH 7.5), 50 mM NaCl, 10 mM MgCl2, 1 mM dithiothreitol (DTT) and 10 mM MnCl2]. […] ATP and […] of GST-fusion substrate (GST-p53:1-101), in varying concentration of Mn^2+. […]

ATM kinase [4] = molecular target: T2, ATM kinase (Homo sapiens, UniProt Q13315); test: In vitro kinase assay, ATM with GST-peptide / GST-fusion substrates; type: biochemical;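 further: immunoprecipitated ATM incubated with [γ-32P]ATP at 30 °C for 20 min, substrates resolved by SDS-PAGE and radiolabel incorporation quantified by PhosphorImager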
T2 construct: The full-length cDNA encoding NH2-terminal, FLAG-tagged wild-type ATM; made in house; host or cells: 293T cells, transient transfection with pcDNA-FLAG-ATMwt, anti-FLAG M2 immunoprecipitate on beads

DNA-PK = DNA-PK (Homo sapiens, UniProt P78527); test: In vitro kinase assay, purified DNA-PK with GST-peptide / GST-fusion substrates; type: biochemical
Protocol: as §1, §2, §3
In vitro kinase assays and immunoprecipitation. […] Cleared supernatants were immunoprecipitated with anti-Flag M2 antibody and protein A/G agarose, the beads were washed with TGN buffer followed by TGN buffer plus 0.5 M LiCl, and two washes with kinase buffer [20 mM HEPES (pH 7.5), 50 mM NaCl, 10 mM MgCl2, 1 mM dithiothreitol (DTT) and 10 mM MnCl2]. […] ATP and […] of GST-fusion substrate (GST-p53:1-101), in varying concentration of Mn^2+. The kinase reaction was conducted at 30° C. for 20 min and stopped by the addition of SDS-PAGE loading buffer. Proteins were separated on SDS-polyacrylamide gel electrophoresis (SDS-PAGE) and transferred to nitrocellulose. Radiolabeled proteins were visualized and quantitated on a Phosphorimager (Molecular Dynamics). Use of equivalent amounts of flag-tagged ATM or ATR in the different lanes was confirmed by immunoblotting with anti-flag antibody. In some reactions, either supercoiled DNA (pBluescript II KS, Stratagene) or linearized DNA (pBluescript II KS cut with EcoR1) was added ([…]). For endogenous ATM kinase reactions, endogenous ATM was immunoprecipitated from GM0536 lymphhoblasts with ATM monoclonal antibody (D16.11) in M buffer (PBS, 10% glycerol, 0.2% Tween 20, 0.3% NP-40, 1 mM NaF, 1 mM Na3VO4, 1 mM PMSF, 1x protease inhibitor mixture]. After washing with M buffer and kinase buffer, in vitro kinase reactions were carried out according to procedures described above. The DNA-PK in vitro kinase reaction was performed as previously described (Gottlieb and Jackson, 1993), using 20 ng each of DNA-PKcs or DNA-PK (20 ng DNA-PKcs premixed with 20 ng Ku 70/80).

[5] = GST-peptide substrate, relative to the p53ser15 site

T2 sequence (Q13315 whole entry, the tested form may be a part): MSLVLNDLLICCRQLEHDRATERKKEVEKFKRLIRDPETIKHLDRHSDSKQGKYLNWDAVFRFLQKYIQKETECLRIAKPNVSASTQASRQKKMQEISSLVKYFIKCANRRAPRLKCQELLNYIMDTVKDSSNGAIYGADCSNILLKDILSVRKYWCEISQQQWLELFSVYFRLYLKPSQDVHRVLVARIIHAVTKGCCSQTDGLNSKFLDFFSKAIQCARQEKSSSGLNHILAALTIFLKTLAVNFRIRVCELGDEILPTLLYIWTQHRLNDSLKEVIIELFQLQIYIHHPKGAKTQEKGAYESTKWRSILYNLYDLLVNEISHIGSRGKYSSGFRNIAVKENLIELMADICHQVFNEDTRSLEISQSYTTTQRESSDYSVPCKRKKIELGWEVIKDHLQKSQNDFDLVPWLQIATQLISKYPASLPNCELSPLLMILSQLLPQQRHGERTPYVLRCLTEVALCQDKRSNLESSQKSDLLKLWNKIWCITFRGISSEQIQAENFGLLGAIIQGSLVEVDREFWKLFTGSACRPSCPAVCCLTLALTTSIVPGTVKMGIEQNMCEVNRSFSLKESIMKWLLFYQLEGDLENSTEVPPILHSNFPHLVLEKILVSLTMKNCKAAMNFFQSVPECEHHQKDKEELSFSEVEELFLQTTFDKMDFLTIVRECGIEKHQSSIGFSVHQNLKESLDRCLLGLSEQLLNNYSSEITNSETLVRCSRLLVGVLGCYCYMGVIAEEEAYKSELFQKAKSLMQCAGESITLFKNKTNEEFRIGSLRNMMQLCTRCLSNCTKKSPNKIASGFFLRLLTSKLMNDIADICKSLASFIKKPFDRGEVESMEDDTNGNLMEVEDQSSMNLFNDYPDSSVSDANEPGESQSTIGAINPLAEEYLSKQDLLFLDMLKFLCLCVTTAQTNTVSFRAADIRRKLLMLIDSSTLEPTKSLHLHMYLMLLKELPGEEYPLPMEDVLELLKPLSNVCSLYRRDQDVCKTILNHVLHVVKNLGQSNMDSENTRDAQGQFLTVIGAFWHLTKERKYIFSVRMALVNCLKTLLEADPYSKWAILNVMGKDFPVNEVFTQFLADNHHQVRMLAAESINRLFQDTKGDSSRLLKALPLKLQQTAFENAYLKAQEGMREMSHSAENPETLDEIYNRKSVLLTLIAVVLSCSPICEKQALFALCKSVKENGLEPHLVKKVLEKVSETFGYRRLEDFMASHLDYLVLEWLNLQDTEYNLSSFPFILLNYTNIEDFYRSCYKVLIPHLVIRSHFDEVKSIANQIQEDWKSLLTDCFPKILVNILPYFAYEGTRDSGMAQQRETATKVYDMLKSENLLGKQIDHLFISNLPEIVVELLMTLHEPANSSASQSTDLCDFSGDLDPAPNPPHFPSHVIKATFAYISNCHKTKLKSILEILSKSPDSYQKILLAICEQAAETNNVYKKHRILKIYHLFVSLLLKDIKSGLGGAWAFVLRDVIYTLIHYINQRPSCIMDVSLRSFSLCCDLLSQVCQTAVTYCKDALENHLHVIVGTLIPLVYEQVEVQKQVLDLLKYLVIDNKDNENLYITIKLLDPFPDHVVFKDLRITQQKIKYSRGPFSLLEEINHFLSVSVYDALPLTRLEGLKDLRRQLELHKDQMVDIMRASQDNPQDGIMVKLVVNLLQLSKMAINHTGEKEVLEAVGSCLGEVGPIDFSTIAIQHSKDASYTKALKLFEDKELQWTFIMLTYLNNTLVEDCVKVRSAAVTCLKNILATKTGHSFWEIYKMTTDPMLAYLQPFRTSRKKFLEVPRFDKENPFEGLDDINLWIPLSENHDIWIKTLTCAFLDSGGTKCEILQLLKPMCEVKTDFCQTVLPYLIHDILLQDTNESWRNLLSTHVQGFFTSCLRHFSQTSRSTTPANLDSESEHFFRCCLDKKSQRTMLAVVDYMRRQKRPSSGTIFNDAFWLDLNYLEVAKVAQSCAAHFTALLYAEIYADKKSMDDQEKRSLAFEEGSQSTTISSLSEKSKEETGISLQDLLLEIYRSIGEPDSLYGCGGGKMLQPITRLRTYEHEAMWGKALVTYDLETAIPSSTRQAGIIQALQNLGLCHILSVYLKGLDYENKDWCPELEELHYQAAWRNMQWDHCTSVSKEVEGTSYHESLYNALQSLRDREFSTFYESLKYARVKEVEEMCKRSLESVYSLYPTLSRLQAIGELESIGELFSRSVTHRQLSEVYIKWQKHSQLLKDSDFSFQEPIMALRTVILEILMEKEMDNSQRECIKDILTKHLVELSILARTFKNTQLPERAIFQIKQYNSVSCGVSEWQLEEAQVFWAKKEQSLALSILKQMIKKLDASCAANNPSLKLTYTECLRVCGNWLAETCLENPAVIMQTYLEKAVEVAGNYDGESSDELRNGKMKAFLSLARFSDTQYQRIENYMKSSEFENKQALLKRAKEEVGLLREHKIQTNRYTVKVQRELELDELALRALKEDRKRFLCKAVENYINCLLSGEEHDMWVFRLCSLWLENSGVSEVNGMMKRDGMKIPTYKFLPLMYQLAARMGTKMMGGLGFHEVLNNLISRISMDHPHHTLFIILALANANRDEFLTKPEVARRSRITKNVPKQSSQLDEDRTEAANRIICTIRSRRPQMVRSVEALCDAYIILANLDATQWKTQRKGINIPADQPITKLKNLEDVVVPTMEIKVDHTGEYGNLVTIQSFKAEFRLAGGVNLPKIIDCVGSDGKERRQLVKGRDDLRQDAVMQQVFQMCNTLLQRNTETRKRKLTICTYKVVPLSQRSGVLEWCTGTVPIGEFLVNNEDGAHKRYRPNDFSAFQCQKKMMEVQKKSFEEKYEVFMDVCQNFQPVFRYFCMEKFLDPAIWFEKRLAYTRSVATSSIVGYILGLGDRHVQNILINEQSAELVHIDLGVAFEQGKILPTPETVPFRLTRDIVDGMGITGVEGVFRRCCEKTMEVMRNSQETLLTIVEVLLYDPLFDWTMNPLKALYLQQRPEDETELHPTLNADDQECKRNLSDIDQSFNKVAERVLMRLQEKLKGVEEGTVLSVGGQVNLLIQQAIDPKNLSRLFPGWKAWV

Molecule: CCCC[C@@H](C=O)NC(=O)[C@H](CC(C)C)NC(=O)[C@H](CC(C)C)NC(C)=O [ALLN, acetyl-Leu-Leu-norleucinal] (Ac-Leu-Leu-[Nle]-aldehyde)
effect on p53 protein (p53 phosphoserine 15; lymphoblasts): stabilization of p53 protein
Phosphoserine 15 of p53 (p53 phosphoserine 15; normal lymphoblasts): undetectable

Molecule: IGF-I: insulin-like growth factor (IGF)-I, growth and neuronal survival factor
ATM kinase activity after IGF-I treatment (ATM kinase [1]): significantly enhanced

Molecule: Insulin: insulin
ATM kinase activity after insulin treatment (ATM kinase [2]): significantly enhanced
release of 4E-BP1 from eIF-4E (4E-BP1 bound to eIF-4E; AT cells (A38)): much less 4E-BP1 was released
release of 4E-BP1 from eIF-4E (4E-BP1 bound to eIF-4E; normal cells (A29)): caused a release of 4E-BP1 from eIF-4E

Molecule: kinase-inactive form of ATM: FLAG-tagged full-length ATM mutant D2870A and N2875K, kinase-dead, dominant-negative
IR-induced phosphorylation of p95ser343 [3]: significantly inhibited

Relative Phosphorylation (%) ATR (ATR; [5]): 1065%
Relative Phosphorylation (%) ATM (ATM kinase [4]; [5]): 91%
Relative Phosphorylation (%) DNA-PK (DNA-PK; [5]): 25%
Molecule: RAD17 (SQ2): GST-peptide ASELPASQPQPFSA (SEQ ID NO:19), S656 (not fully specified (N-terminus); also: GST fusion; listed as Homo sapiens)

effect of addition on ATR kinase activity (ATR; transfected flag-tagged ATR, GST-p53 (1-101) substrate): dependent
effect of addition on activity of endogenous ATM (ATM kinase [4]; endogenous ATM immunoprecipitated under mild conditions): dependent
effect of addition on ATM kinase activity (ATM kinase [4]; transfected flag-tagged ATM, GST-p53 (1-101) substrate): dependent
effect of addition on DNA-PK activity (DNA-PK; purified DNA-PK, GST-p53 (1-101) substrate): not altered
Molecule: [Mn+2] [Mn^2+]
